Assay results as given in patent publication US10947242B2, “[1,2,4]triazolo[1,5and#8208;A]pyrimidine compounds as PDE2 inhibitors” (Janssen Pharmaceutica NV, priority 2016, dated 2021).
Structures can show the parent of a compound that is named as a salt. Where two headings read alike, the source gives them in different places.

How the values were obtained:
Format in all cases: biochemical
[1] = biological target: T1, Human recombinant PDE10A (hPDE10A) (Homo sapiens, UniProt Q9Y233); assay: In vitro assay PDE10A, human clone (SPA, 3H-cAMP hydrolysis)
T1 construct: His tag (inferred from metal chelate purification); made in house; host or cells: Sf9 insect cells (baculovirus)
Protocol: Rat recombinant PDE10A (rPDE10A2) was expressed in Sf9 cells using a recombinant rPDE10A baculovirus construct. […] Tested compounds were dissolved and diluted in 100% DMSO to a concentration 100 fold of the final concentration in the assay. Human recombinant PDE10A ([…]) was expressed in Sf9 cells using a recombinant hPDE10A baculovirus that was made and amplified in house. […] Compound dilutions (0.4 μl) were added in 384 well plates to 20 μl of incubation buffer (50 mM Tris pH 7.8, 8.3 mM MgCl2, 1.7 mM EGTA). 10 μl of rPDE10A or hPDE10A enzyme in incubation buffer was added and the reaction was started by addition of 10 μl substrate to a final concentration of 60 nM cAMP and 0.008 μCi ^3H-cAMP. The reaction was incubated for 60 minutes at room temperature. […] After sedimentation of the beads during 30 minutes the radioactivity was measured in a Perkin Elmer Topcount scintillation counter and results were expressed as cpm. For blanc values the enzyme was omitted from the reaction and replaced by incubation buffer. Control values were obtained by addition of a final concentration of 1% DMSO instead of compound.

[2] = biological target: T2, Human recombinant PDE2A (hPDE2A) (Homo sapiens, UniProt O00408); assay: In vitro assay PDE2A (SPA, 3H-cGMP hydrolysis); settings: for Emax: read-out: hPDE2A Emax
T2 construct: His tag (inferred from metal chelate purification); made in house; host or cells: Sf9 insect cells (baculovirus)

[3] = biological target: T3, Human recombinant PDE3A (hPDE3A) (Homo sapiens, UniProt Q14432); assay: In vitro assay PDE3A (SPA, 3H-cAMP hydrolysis); settings: for IC50: hPDE3B pIC50, read-out: pIC50 (converted); for Emax: read-out: hPDE3B Emax, read-out: Emax;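 on all read-outs here: the method names PDE3A and the table heading PDE3B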
T3 construct: purchased Scottish Biomedical; host or cells: Sf9 insect cells
Protocol: Human recombinant PDE3A (hPDE3A) was supplied as a partially purified insect cell lysate by Scottish Biomedical, it was cloned from human brain and expressed in Sf9 cells. Tested compounds were dissolved and diluted in 100% DMSO to a concentration 100 fold of the final concentration in the assay. Compound dilutions (0.4 μl) were added in 384 well plates to 20 μl of incubation buffer (50 mM Tris pH 7.8, 8.3 mM MgCl2, 1.7 mM EGTA). 10 μl of hPDE3A enzyme in incubation buffer was added and the reaction was started by addition of 10 μl substrate to a final concentration of 0.4 μM cAMP and 2.4 μCi/ml [^3H]-cAMP. The reaction was incubated for 60 min at room temperature. […] After sedimentation of the beads during 30 min the radioactivity was measured in a Perkin Elmer Topcount scintillation counter and results were expressed as cpm. For blanc values the enzyme was omitted from the reaction and replaced by incubation buffer. Control values were obtained by addition of a final concentration of 1% DMSO instead of compound.

[4] = human clone (h), default, read-out: hPDE10A2 Emax
[5] = human clone (h), default, read-out: hPDE10A2 pIC50 (converted)
[6] = human recombinant PDE2A, 10 μM cGMP substrate, read-out: hPDE2A pIC50 (converted)
[7] = read-out: hPDE2A pIC50 (converted)
[8] = human clone by default (no (r) mark), read-out: hPDE10A2 or rPDE10A2 Emax
[9] = human clone by default (no (r) mark), read-out: hPDE10A2 or rPDE10A2 pIC50 (converted)

T1 sequence (Q9Y233 267-1055): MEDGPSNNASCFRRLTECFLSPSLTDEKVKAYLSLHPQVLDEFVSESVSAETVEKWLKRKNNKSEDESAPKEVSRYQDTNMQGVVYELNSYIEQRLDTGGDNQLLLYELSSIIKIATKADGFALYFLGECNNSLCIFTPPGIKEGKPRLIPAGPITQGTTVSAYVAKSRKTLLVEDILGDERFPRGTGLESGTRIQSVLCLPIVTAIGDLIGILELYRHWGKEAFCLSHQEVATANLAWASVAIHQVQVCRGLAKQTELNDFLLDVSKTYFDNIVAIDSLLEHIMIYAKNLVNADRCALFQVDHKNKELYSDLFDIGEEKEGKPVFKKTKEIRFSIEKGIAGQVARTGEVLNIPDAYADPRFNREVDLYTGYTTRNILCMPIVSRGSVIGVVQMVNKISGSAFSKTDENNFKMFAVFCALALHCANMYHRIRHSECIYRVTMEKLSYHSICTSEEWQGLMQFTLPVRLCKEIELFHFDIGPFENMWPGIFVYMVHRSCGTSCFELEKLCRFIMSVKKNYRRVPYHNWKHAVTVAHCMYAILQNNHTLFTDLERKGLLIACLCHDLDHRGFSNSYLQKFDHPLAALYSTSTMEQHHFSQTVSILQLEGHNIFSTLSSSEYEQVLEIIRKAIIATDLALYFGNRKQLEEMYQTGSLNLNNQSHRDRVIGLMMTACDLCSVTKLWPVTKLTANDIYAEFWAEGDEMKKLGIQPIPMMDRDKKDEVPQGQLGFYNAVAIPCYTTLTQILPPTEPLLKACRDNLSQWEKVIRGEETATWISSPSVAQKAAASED
T2 sequence (O00408 whole entry): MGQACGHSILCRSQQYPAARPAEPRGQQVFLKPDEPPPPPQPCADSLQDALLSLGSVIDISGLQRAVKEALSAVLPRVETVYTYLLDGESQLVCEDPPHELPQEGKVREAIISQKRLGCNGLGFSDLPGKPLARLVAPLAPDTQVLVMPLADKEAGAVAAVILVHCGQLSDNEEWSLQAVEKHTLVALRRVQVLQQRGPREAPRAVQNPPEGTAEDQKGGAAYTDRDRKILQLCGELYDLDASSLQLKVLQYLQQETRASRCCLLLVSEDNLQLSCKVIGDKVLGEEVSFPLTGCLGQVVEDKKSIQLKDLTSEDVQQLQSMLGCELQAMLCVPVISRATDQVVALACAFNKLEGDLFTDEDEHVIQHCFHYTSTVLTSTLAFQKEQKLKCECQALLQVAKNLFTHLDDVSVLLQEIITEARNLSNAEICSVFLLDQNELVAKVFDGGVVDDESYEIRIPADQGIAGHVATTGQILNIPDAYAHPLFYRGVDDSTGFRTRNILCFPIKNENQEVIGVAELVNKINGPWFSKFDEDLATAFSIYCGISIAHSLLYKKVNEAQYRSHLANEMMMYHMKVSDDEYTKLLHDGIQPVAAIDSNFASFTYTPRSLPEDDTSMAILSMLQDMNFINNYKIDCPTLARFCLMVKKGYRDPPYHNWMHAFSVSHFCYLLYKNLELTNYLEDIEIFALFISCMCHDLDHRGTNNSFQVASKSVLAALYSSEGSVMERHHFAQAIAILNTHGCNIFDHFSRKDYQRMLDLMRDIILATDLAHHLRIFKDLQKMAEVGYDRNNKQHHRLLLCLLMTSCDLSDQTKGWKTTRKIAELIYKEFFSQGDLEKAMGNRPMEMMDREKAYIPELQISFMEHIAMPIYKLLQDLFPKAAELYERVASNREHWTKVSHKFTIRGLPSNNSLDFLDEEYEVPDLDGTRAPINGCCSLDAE
T3 sequence (Q14432 whole entry): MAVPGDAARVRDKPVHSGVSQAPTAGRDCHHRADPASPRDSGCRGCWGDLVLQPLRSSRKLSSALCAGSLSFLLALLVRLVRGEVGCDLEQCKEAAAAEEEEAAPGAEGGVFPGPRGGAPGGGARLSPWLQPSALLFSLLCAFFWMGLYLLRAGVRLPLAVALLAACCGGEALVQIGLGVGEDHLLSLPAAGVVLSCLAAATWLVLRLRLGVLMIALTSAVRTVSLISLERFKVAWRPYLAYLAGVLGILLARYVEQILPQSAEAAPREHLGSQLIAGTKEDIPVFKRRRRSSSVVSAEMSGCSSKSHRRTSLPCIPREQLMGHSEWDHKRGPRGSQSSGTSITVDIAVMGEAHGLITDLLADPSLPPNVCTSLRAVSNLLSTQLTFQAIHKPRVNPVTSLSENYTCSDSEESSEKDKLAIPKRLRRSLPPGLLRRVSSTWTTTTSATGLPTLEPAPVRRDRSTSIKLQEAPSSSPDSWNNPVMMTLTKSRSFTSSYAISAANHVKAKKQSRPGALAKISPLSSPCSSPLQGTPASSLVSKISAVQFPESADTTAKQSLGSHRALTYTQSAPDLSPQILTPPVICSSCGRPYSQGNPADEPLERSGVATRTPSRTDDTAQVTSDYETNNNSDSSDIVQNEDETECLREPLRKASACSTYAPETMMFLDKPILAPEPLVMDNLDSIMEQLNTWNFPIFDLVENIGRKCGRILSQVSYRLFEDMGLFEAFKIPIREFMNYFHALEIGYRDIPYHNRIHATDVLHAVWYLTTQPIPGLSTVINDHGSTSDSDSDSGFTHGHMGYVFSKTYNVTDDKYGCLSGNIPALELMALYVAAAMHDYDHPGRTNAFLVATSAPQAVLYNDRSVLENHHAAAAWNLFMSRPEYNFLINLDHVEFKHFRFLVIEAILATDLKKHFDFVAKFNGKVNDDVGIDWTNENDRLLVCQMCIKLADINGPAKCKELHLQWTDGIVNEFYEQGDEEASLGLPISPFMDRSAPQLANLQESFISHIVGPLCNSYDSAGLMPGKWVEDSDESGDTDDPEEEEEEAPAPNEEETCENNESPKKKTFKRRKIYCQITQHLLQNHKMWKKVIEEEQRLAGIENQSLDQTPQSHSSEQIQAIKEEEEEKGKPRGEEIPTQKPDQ

SMILES	Emax [1, 4]	IC50 [1, 5]	IC50 [2, 6]	Emax ([2]; human recombinant PDE2A)	Emax [2]	IC50 [2, 7]	IC50 [3]	Emax [3]	Emax [1, 8]	IC50 [1, 9]	IC50 ([2]; hPDE2A pIC50, human recombinant PDE2A, 10 μM cGMP substrate)	hPDE10A2 Emax ([1]; human clone (h), default)	hPDE10A2 pIC50 ([1]; human clone (h), default)	hPDE2A Emax [2]	hPDE2A pIC50 [2]	hPDE2A Emax ([2]; human recombinant PDE2A)	hPDE2A pIC50 ([2]; human recombinant PDE2A, 10 μM cGMP substrate)	hPDE3B Emax [3]
C[C@]1(c2cc(C(F)F)nc3ncnn23)CCCN(C(=O)c2ccc3c(ccn3CCF)c2)C1 (single isomer, unassigned) [Compound 200]	13%	> 10000 nM	97.7 nM	91%	91%	97.7 nM	> 10000 nM	35%	–	–	–	–	–	–	–	–	–	–
C[C@@H]1CCN(C(=O)c2cc(C(C)(C)C)nc(C(C)(C)C)c2)C[C@H]1c1cc(C(F)F)nc2ncnn12 [Compound 266]	89%	2630 nM	–	–	100%	417 nM	5370 nM	74%	89%	2630 nM	–	–	–	–	–	–	–	–
Cc1nc(C(F)(F)F)ccc1C(=O)N1CC[C@@H](C)[C@H](c2cc(C(F)F)nc3ncnn23)C1 [Compound 263]	64%	5130 nM	–	–	99%	129 nM	4900 nM	65%	64%	5130 nM	–	–	–	–	–	–	–	–
O=C(c1ccc2occc2c1)N1CCC[C@](F)(c2cc(C(F)F)nc3ncnn23)C1 (single isomer, unassigned) [Compound 138]	24%	> 10000 nM	–	–	93%	28.2 nM	4900 nM	64%	–	–	–	–	–	–	–	–	–	–
Cc1cc([C@@H]2CN(C(=O)c3ccn(C)c3)CC[C@H]2C)n2ncnc2n1 [Compound 14]	99%	89.1 nM	6.03 nM	99%	99%	6.03 nM	4680 nM	70%	–	–	–	–	–	–	–	–	–	–
C[C@@H]1CCN(C(=O)c2cocn2)C[C@H]1c1cc(C(F)F)nc2ncnn12 [Compound 87]	69%	4570 nM	214 nM	98%	98%	214 nM	> 10000 nM	11%	–	–	–	–	–	–	–	–	–	–
COCc1cc(C(=O)N2CC[C@@H](C)[C@H](c3cc(C(F)F)nc4ncnn34)C2)cc(C)n1 [Compound 288]	–	–	–	–	101%	2.69 nM	> 10000 nM	44%	93%	417 nM	–	–	–	–	–	–	–	–
O=C(c1cccc2ncccc12)N1[C@H]2CC[C@H](c3cc(C(F)F)nc4ncnn34)[C@@H]1CC2 [Compound 315]	–	–	–	–	98%	112 nM	> 10000 nM	20%	47%	9770 nM	–	–	–	–	–	–	–	–
Cc1cc(C(=O)N2CC[C@H](C)[C@@H](c3cc(C(F)F)nc4ncnn34)C2)cc(C)n1 [220 (•HCl)]	27%	> 10000 nM	–	–	54%	–	–	–	–	–	977 nM	–	–	–	–	–	–	–
C[C@@H]1CCN(C(=O)c2csc(N)n2)C[C@H]1c1cc(C(F)F)nc2ncnn12 [Compound 158]	78%	2140 nM	64.6 nM	100%	100%	64.6 nM	> 10000 nM	19%	–	–	–	–	–	–	–	–	–	–
Cc1cc([C@@H]2CN(C(=O)c3cnc(Cl)c(Cl)c3)CC[C@H]2C)n2ncnc2n1 [Compound 17]	97%	81.3 nM	4.9 nM	99%	99%	4.9 nM	4270 nM	74%	–	–	–	–	–	–	–	–	–	–
Cc1cc(C(=O)N2CC[C@H](C)[C@@H](c3cc(C#N)nc4ncnn34)C2)cc(C)n1 [Compound 26b]	–	–	–	–	–	–	–	–	–	–	–	95	6.63	98	8.17	98	8.17	41
Cc1cc([C@@H]2CN(C(=O)c3ccc(C(C)(C)C)o3)CC[C@H]2C)n2ncnc2n1 [Compound 9]	100%	74.1 nM	13.8 nM	101%	101%	13.8 nM	4270 nM	74%	–	–	–	–	–	–	–	–	–	–
Cc1cccnc1C(=O)N1CC[C@@H](C)[C@H](c2cc(C(F)F)nc3ncnn23)C1 [Compound 229]	33%	> 10000 nM	562 nM	95%	95%	562 nM	> 10000 nM	18%	33%	> 10000 nM	–	–	–	–	–	–	–	–
COc1c(C)cc(C(=O)N2CC[C@@H](C)[C@@](F)(c3cc(C(F)F)nc4ncnn34)C2)cc1C [Compound 75]	27%	> 10000 nM	2950 nM	81%	81%	2950 nM	> 10000 nM	22%	–	–	–	–	–	–	–	–	–	–
C[C@@H]1CCN(C(=O)c2cnc(Br)s2)C[C@H]1c1cc(C(F)F)nc2ncnn12 [Compound 182]	95%	417 nM	25.1 nM	100%	100%	25.1 nM	> 10000 nM	44%	–	–	–	–	–	–	–	–	–	–
Cc1nn(C)cc1C(=O)N1CC[C@@H](C)[C@H](c2cc(C(F)F)nc3ncnn23)C1 [Compound 198]	91%	417 nM	5.62 nM	98%	98%	5.62 nM	> 10000 nM	35%	–	–	–	–	–	–	–	–	–	–
Cc1csc(C(=O)N2CCC[C@](C)(c3cc(C(F)F)nc4ncnn34)C2)c1 (single isomer, unassigned) [Compound 208]	4%	> 10000 nM	589 nM	62%	62%	589 nM	> 10000 nM	30%	–	–	–	–	–	–	–	–	–	–
COc1cc(C(=O)N2CC[C@@H](C)[C@H](c3cc(C(F)F)nc4ncnn34)C2)cc(C2CC2)n1 [Compound 113]	99%	38 nM	1 nM	99%	99%	1 nM	1120 nM	88%	–	–	–	–	–	–	–	–	–	–
C/C(=C\c1ccccc1)C(=O)N1[C@H]2CC[C@H](c3cc(C(F)F)nc4ncnn34)[C@@H]1CC2 [Compound 371]	–	–	–	–	101%	13.8 nM	389 nM	96%	98%	389 nM	–	–	–	–	–	–	–	–
C[C@@H]1CCN(C(=O)c2ccc(C#N)cn2)C[C@H]1c1cc(C(F)F)nc2ncnn12 [Compound 234]	59%	8710 nM	513 nM	96%	96%	513 nM	> 10000 nM	22%	59%	8710 nM	–	–	–	–	–	–	–	–
COc1c(F)cc(C(=O)N2[C@H]3CC[C@H](c4cc(C(F)F)nc5ncnn45)[C@@H]2CC3)cc1F [Compound 359]	–	–	–	–	99%	12 nM	3980 nM	71%	86%	2140 nM	–	–	–	–	–	–	–	–
C[C@@H]1CCN(C(=O)c2ccncc2N)C[C@H]1c1cc(C(F)F)nc2ncnn12 [Compound 142]	79%	2570 nM	30.2 nM	100%	100%	30.2 nM	> 10000 nM	35%	–	–	–	–	–	–	–	–	–	–
COc1c(F)cc(C(=O)N2CC[C@@H](C)[C@H](c3cc(C(F)F)nc4ncnn34)C2)cc1F [Compound 128]	98%	155 nM	2.29 nM	100%	100%	2.29 nM	933 nM	90%	–	–	–	–	–	–	–	–	–	–
Cc1ccc(C(=O)N2CC[C@@H](C)[C@H](c3cc(C(F)F)nc4ncnn34)C2)c(C)n1 [Compound 143]	77%	2400 nM	33.1 nM	97%	97%	33.1 nM	7940 nM	58%	–	–	–	–	–	–	–	–	–	–
